The target of data set [1] is T1, NCX1 (Canis lupus familiaris, UniProt P23685).
T1 construct: expressed in transfected cells
Briefly: 45Ca2+ radiotracer fluxes (efflux/influx) in BHK-NCX1 cells. It is filed as cell-based. The procedure:
(§1) The activity of NCX was established by means of three different subclones of baby hamsted kidney (BHK) cells that were stably transfected with one of each NCX isoforms, named BHK-NCX1, BHK-NCX2 and BHK-NCX3. These cell lines were grown on plastic dishes in a mix of DMEM and Ham's F12 media (1:1) (Gibco, Invitrogen, MI, Italy) supplemented with 5% fetal bovine serum, 100 U/ml penicillin, and 100 µg/ml streptomycin (Sigma, St. Louis, Missouri, USA). Cells were cultured in a humidified 5% CO2 atmosphere and at the temperature of 37°C.
(§2) The activity of the Na^+/Ca^2+ exchanger was measured by means of ^45Ca^2+ radiotracer variations in the cytoplasm of cells exposed to a protocol stimulating the forward or the reverse mode of the antiporter. The BHK cells expressing each mutated or non-mutated NCX isoform were cultured in 12-well dishes and incubated in 145 mM NaCl for 10 minutes and then in a medium containing only 145 mM N-Methyl D-glucamine (NMDG) and 10 µM of ^45Ca^2+. This rapid substitution of the medium from a high level of Na^+ to another one without Na^+ allow the ^45Ca^2+ influx (reverse mode). Before the medium substitution cells was incubated with 1 mM ouabain, a Na^+/K^+ pump inhibitor, and 10 µM monensin, a ionophore for extracellular Na^+. After 30 seconds incubation, cells were washed with an ice-cold solution containing 2 mM La^3+ to stop ^45Ca^2+ uptake. The medium was removed and cells were subsequently lysed with 0.1 N NaOH and aliquots were taken to determine radioactivity and protein content.
In order to measure NCX activity in the forward mode, cells were firstly loaded with ^45Ca^2+ and subsequently exposed to a chemical protocol to stimulate the efflux of the radiotracer in the extracellular medium. In particular, cells were loaded with ^45Ca^2+ by using a solution containing 1 µM ionomycin, 145 mM Na^+ and ^45Ca^2+. Next, cells were exposed to a Ca^2+-free solution containing 2 mM EGTA. One µM thapsigargin, a Ca^2+-ATPase inhibitor, was present in both solutions in order to prevent ^45Ca^2+ influx in intracellular organelles. After 60 second, cells were lysed with […] NaOH and aliquots were taken to determine cytoplasmatic radioactivity.
Cells were incubated for 30 minutes with different neurounina-1 concentrations.

Data set [2] deals with T2, NCX3 (Rattus norvegicus, UniProt P70549).
T2 construct: expressed in transfected cells
T2 sequence (P70549 31-927): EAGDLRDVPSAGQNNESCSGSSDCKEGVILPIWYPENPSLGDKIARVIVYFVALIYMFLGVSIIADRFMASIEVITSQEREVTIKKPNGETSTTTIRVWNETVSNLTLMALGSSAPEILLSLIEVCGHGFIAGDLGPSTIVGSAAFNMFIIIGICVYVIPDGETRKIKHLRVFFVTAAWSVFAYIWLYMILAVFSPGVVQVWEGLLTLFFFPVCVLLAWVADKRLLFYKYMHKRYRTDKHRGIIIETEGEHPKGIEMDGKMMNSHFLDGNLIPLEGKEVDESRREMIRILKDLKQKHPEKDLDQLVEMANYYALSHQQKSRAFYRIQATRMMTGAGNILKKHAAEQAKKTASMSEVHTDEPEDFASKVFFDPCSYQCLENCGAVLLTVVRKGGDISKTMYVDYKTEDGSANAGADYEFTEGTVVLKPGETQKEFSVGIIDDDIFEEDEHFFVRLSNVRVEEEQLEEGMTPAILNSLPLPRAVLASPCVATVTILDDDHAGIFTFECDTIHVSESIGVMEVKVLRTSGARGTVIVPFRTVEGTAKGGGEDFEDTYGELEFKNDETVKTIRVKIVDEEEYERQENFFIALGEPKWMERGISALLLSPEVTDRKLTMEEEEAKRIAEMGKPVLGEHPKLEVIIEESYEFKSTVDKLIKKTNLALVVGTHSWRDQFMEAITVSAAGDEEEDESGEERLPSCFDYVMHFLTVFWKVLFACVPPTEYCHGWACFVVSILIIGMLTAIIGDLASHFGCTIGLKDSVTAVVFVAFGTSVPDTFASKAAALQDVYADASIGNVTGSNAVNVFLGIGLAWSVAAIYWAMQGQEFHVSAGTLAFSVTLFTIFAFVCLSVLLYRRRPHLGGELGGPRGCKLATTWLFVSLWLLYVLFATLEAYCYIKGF
Briefly: 45Ca2+ radiotracer fluxes (efflux/influx) in BHK-NCX3 cells. The class given is cell-based. How it is done: as §1, §2
In order to measure NCX activity in the forward mode, cells were firstly loaded with ^45Ca^2+ and subsequently exposed to a chemical protocol to stimulate the efflux of the radiotracer in the extracellular medium. In particular, cells were loaded with ^45Ca^2+ by using a solution containing 1 µM ionomycin, 145 mM Na^+ and ^45Ca^2+. Next, cells were exposed to a Ca^2+-free solution containing 2 mM EGTA. […] After 60 second, cells were lysed with […] NaOH and aliquots were taken to determine cytoplasmatic radioactivity. […]

Data set [3] concerns the target T1, NCX1. Briefly: Fura-2 AM single-cell microfluorimetry, BHK-NCX1 cells. The class given is cell-based. Particulars: 10 nM (Fig. 2). How it is done:
as §1
(§3) NCX activity has been measured considering the variation of intracellular concentrations of Ca^2+ ions ([Ca^2+]i) due to its activation by means of single-cell microfluorimetry. […] In both cases, this probe will produce an emission at 510 nm; the ratio between the two emission relative to 340 and 380 excitation allow to quantify [Ca^2+]i in the time considering the calibration curve previously performed. […]
(§4) Briefly, BHK cells wild type and/or BHK trasnsfected with NCX mutants, grown on glass coverslips, were loaded with Fura-2 acetoxymethyl ester (Fura-2AM) (10 µM) for 30 minutes at 37°C in normal Krebs solution containing the following (in mM): 5.5 KCI, 160 NaCl, 1.2 MgCl2, 1.5 CaCl2, 10 glucose, and 10 Hepes-NaOH, pH 7.4. […] Fura-2 fluorescence intensity was measured every 3 seconds. […]

The target of data set [4] is T2, NCX3. Description: Fura-2 AM single-cell microfluorimetry, BHK-NCX3 cells. The class given is cell-based. The conditions noted are these: 10 nM (Fig. 2). How it is done: as §1, §3, §4
The target of the next data set is T3, NCX1 L808F (Canis lupus familiaris, UniProt P23685, L840F).
T3 construct: expressed in transfected cells
T3 sequence (P23685 33-970 L840F): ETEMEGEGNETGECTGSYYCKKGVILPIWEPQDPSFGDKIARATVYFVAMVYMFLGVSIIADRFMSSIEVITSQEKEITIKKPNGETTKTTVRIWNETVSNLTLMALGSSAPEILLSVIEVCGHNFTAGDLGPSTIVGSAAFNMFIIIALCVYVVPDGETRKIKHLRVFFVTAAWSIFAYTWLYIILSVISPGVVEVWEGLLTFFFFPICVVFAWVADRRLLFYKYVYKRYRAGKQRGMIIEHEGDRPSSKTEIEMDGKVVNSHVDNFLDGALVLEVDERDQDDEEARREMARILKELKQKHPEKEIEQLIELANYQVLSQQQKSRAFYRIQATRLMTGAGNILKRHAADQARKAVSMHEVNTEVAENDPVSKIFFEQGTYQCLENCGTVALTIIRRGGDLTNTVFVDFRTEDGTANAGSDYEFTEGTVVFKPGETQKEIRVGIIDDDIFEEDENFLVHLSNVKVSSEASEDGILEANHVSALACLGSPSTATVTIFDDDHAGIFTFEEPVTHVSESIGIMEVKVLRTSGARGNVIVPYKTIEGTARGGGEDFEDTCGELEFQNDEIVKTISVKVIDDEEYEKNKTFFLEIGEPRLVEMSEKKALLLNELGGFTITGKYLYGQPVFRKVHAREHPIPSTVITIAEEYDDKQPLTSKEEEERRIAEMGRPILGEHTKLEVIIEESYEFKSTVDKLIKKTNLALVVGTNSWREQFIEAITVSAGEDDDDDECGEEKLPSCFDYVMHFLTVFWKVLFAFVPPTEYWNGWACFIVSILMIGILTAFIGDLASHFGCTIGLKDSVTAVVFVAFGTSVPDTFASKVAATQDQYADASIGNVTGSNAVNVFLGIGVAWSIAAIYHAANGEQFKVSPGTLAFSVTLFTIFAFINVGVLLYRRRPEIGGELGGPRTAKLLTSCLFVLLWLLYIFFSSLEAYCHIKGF
Briefly: NCX1 point mutant activity (45Ca2+ uptake and Fura-2). It is filed as cell-based. The conditions noted are these: single mutation, functional exchanger. The procedure: (§5) To identify the critical residues involved in drug sensitivity between NCX1 and NCX3 proteins, each residue in NCX1, in the regions α1 and α2, was substituted with the corresponding residue in NCX3.
(§6) All experiments aimed to identify the binding site of neurounina-1 were performed on BHK cells stably transfected with a single NCX chimera or mutant.
as §2, with “After 30 seconds incubation, cells were washed with an ice-cold solution containing 2 mM La^3+ to stop ^45Ca^2+ uptake.” left out
(§7) Briefly, BHK cells wild type and/or BHK trasnsfected with NCX mutants, grown on glass coverslips, were loaded with Fura-2 acetoxymethyl ester (Fura-2AM) (10 µM) for 30 minutes at 37°C in normal Krebs solution containing the following (in mM): 5.5 KCI, 160 NaCl, 1.2 MgCl2, 1.5 CaCl2, 10 glucose, and 10 Hepes-NaOH, pH 7.4. […] Fura-2 fluorescence intensity was measured every 3 seconds. […] NCX activity was evaluated as Ca2+ uptake through the reverse mode by switching the normal Krebs medium containing thapsigargi (1µM) to Na^+-deficient NMDG+ medium (Na^+-free) containing (in mM): 5.5 KCI, 147 N-Methyl glucamine, 1.2 MgCl2, 1.5 CaCl2, 10 glucose, and 10 Hepes-NaOH (pH 7.4). All the results are presented as percentage of cytosolic Ca^2+ concentration increase above basal values and expressed as mean± S.E.M.

The next data set has as its target T4, NCX1 N124G (Canis lupus familiaris, UniProt P23685, N157G).
T4 construct: expressed in transfected cells
The description is as above. The class given is cell-based. The conditions noted are these: single mutation, functional exchanger. The procedure:
as §5, §6
as §2, with “After 30 seconds incubation, cells were washed with an ice-cold solution containing 2 mM La^3+ to stop ^45Ca^2+ uptake.” left out
as §7

The target of a further data set is T5, NCX1 V117L (Canis lupus familiaris, UniProt P23685, V150L).
T5 construct: expressed in transfected cells
T5 sequence (P23685 33-970 V150L): as the sequence (P23685 33-970 L840F) above, with V118L, F808L counted along it
The data set is described as above. It is filed as cell-based. Particulars: single mutation, functional exchanger. How it is done: as §5, §6
as §2, with “After 30 seconds incubation, cells were washed with an ice-cold solution containing 2 mM La^3+ to stop ^45Ca^2+ uptake.” left out
as §7

The next data set concerns BHK cells. Briefly: Mitochondrial dehydrogenase activity (MTT). It is filed as cell-based, hamster.
Setting [5] is: 45Ca2+ radiotracer, forward mode.
The mark [6] stands for this setting: 45Ca2+ radiotracer, reverse mode.
Where [7] appears, read: forward and reverse mode, patch clamp, Fura-2 microfluorimetry and 45Ca2+ fluxes (summary).

Molecules are shown by their SMILES. “Also recorded” adds a separate entry of the source.

T1 sequence (P23685 33-970): as the sequence (P23685 33-970 L840F) above, with F808L counted along it
T4 sequence (P23685 33-970 N157G): as the sequence (P23685 33-970 L840F) above, with N125G, F808L counted along it

Turning to `O=C1CN=C(c2ccccc2)c2cc([N+](=O)[O-])ccc2N1CN1CCCC1` [neurounina-1, 7-nitro-5-phenyl-1-(pyrrolidin-1-ylmethyl)-1H-benzo[e][1,4]diazepin-2(3H)-one], the “increase of forward mode of NCX1 activity” value on NCX1 [1] (setting [5]) is 70%. In addition, at NCX1 [1] (setting [6]), the “increase of reverse mode NCX1 activity” value amounted to 40%. Moreover, the EC50 (as a rule, the concentration needed to bring the measured effect to its halfway point) at NCX1 [1] (EC50 NCX1, reverse mode, 45Ca2+ radiotracer, reverse mode) is 1.1 nM; on NCX1 [1] (EC50 for NCX1, forward mode, 45Ca2+ radiotracer, forward mode), 1.4 nM; at NCX1 [1] (EC50 su NCX1, from the functional assays (summary)), 1 to 2 nM. Moreover, the NCX1 activity entry at NCX1 [1] (setting [7]) is recorded as “increases, in a dose-dependent manner”. Besides, the “activity of NCX3, forward mode” value on NCX3 [2] (setting [5]) is “did not significantly affect”. Moreover, at NCX3 [2] (setting [6]), the “activity of NCX3, reverse mode” value is “did not affect”. The NCX3 activity result at NCX3 [2] (setting [7]) was “did not exert any effect”. In addition, the “increased reverse mode activity of NCX1” value at NCX1 [3] is on record as 30%. Also, at NCX3 [4], the “activity of Na+/Ca2+ exchange in BHK cells expressing NCX3” value is given as “did not show any significant difference”. Further, on NCX1 L808F, the “sensitivity of NCX1 mutant L808F” value is on record as “insensible”. The “sensitivity of NCX1 mutant N124G” value at NCX1 N124G is listed as “insensible”. Besides, on NCX1 V117L, the “sensitivity of NCX1 mutant V117L” value was “insensible”. Also, the “non-toxic concentration relative to EC50” value in the data set on BHK cells (10 µM versus EC50) is listed as about 10.000 times. Further, in the data set with BHK cells (10 µM, 24 hours, BHK cells), the mitochondrial activity result is “did not show any toxic effect; also recorded: did not affect”.

The values are drawn from patent EP2646421B1, “7-NITRO-5-PHENYL-1-(PYRROLIDIN-1-YLMETHYL)-1H-BENZO[E][1,4]DIAZEPIN-2(3H)-ONE AND OTHER BENZODIAZEPINE DERIVATIVES” (Pignataro, Giuseppe, priority 2010, dated 2012).
